Results reported in ChEMBL document CHEMBL4477267, “Discovery of oxa-sultams as RORc inverse agonists showing reduced lipophilicity, improved selectivity and favorable ADME properties” (Bioorg Med Chem Lett, 2016).
In brackets after ≈: the same amount, converted by molar mass.

Tests used:
[1] = biological target: T1, Nuclear receptor ROR-gamma (Homo sapiens) (UniProt P51449); assay: Inverse agonist activity at human RORc-LBD assessed as inhibition of SRC1 co-activator peptide recruitment by FRET assay relative to apo-RORc basal activity
T1 sequence (whole entry): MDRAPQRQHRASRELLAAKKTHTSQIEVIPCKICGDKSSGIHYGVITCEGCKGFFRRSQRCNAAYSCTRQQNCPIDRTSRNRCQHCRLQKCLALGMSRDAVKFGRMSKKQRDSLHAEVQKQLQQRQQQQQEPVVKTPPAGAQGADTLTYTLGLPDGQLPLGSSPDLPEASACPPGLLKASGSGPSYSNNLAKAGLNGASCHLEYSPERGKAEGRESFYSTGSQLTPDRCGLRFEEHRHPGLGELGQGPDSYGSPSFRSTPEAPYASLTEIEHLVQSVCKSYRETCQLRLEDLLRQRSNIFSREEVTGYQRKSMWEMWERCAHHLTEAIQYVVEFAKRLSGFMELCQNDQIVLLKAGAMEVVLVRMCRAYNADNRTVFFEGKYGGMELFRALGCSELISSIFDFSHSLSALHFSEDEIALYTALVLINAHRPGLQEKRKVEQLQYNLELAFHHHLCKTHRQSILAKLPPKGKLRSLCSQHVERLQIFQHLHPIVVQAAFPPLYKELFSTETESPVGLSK

[2] = biological target: T2, Nuclear receptor ROR-gamma (Homo sapiens, UniProt P51449); assay: Inverse agonist activity at human RORc-LBD assessed as inhibition of SRC1 co-activator peptide recruitment by FRET assay
T2 sequence (P51449 whole entry): T1 sequence (whole entry)

PBMC [3] = assay: Inhibition of IFN-gamma production in anti-CD3 and anti-CD28 stimulated human PBMC measured […] by Sandwich ELISA; format: functional, cell-based
PBMC [4] = assay: Inhibition of IL-17AA production in anti-CD3 and anti-CD28 stimulated human PBMC measured […] by Sandwich ELISA relative to control; format: functional
[5] = biological target: T3, Nuclear receptor ROR-beta (Homo sapiens, UniProt Q92753); assay: Inverse agonist activity at GAL4-fused human RORb expressed in HEK293 cells assessed as […] of basal transcriptional activity by dual-glo luciferase reporter gene assay; format: cell-based
T3 sequence (Q92753 whole entry): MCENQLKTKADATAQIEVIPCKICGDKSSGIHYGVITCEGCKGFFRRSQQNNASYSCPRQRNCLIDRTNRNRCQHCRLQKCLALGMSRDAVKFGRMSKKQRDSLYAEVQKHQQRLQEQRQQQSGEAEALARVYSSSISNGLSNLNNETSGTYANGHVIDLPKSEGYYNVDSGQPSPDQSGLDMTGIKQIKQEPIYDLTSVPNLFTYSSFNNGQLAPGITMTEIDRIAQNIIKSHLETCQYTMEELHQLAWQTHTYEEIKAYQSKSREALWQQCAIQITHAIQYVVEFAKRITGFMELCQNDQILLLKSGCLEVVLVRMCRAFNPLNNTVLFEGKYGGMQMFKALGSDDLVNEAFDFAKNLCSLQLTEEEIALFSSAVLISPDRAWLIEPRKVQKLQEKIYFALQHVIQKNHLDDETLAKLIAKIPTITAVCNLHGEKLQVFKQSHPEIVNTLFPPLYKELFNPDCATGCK

[6] = biological target: T2, Nuclear receptor ROR-gamma; assay: Inverse agonist activity at GAL4-fused human RORc expressed in HEK293 cells assessed as […] of basal transcriptional activity by dual-glo luciferase reporter gene assay; format: cell-based
[7] = biological target: T4, Nuclear receptor ROR-alpha (Homo sapiens, UniProt P35398); assay: Inverse agonist activity at GAL4-fused human RORa expressed in HEK293 cells assessed as […] of basal transcriptional activity by dual-glo luciferase reporter gene assay; format: cell-based
T4 sequence (P35398 whole entry): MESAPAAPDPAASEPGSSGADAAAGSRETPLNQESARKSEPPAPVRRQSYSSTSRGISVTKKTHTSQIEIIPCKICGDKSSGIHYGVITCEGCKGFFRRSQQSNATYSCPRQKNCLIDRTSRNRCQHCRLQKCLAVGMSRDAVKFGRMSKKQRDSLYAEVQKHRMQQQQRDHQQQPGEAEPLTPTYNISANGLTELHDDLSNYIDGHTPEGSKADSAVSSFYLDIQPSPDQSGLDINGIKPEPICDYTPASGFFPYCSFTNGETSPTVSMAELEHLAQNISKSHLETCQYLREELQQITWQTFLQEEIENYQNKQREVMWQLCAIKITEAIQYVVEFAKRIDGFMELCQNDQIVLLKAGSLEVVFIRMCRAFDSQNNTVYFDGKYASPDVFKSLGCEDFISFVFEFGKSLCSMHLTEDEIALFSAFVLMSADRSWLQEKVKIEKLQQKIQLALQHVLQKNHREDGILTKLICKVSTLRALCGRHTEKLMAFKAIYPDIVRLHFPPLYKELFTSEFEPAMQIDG

PBMC [8] = assay: Inhibition of IL-17AA production in anti-CD3 and anti-CD28 stimulated human PBMC measured […] by Sandwich ELISA; format: functional, cell-based
PBMC [9] = assay: Cytotoxicity against human PBMC assessed as cell viability measured after 48 hrs by CellTiter-Glo assay; format: cell-based
[10] = Clearance in human liver microsomes relative to liver blood flow; format: ADME, Microsome; details: read-out: CLH
[11] = Apparent permeability from apical to basolateral side in MDCK cells; format: ADME, cell-based, Canis lupus familiaris; details: dog
[12] = Protein binding in rat plasma by equilibrium dialysis; format: ADME, cell-free; details: read-out: PPB (converted)
[13] = Clearance in rat liver microsomes relative to liver blood flow; format: ADME, Microsome; details: read-out: CLH
[14] = Apparent permeability from basolateral to apical side in MDCK cells; format: ADME, cell-based, Canis lupus familiaris; details: dog
[15] = Protein binding in mouse plasma by equilibrium dialysis; format: ADME, cell-free; details: read-out: PPB (converted)
[16] = Aqueous kinetic solubility of the compound in pH 7.4 by high-throughput assay; format: physicochemical
[17] = Protein binding in human plasma by equilibrium dialysis; format: ADME, cell-free; details: read-out: PPB (converted)
[18] = Efflux ratio of apparent permeability from basolateral to apical over apical to basolateral side in MDCK cells; format: ADME, cell-based, Canis lupus familiaris; details: dog

## CC(=O)N1CCN(c2ccc(CN3[C@@H](C)CC[C@H](c4ccc(Cl)cc4)S3(=O)=O)c(F)c2)CC1
[1]
  Efficacy: 99%
[2]
  EC50: 34 nM

## CC(=O)N1CCN(c2ccc(CN3[C@@H](C)CC[C@H](c4ccccn4)S3(=O)=O)c(F)c2)CC1
[1]
  Efficacy: 87%
[2]
  EC50: 120 nM

## CC(=O)N1CCN(c2ccc(CN3[C@@H](C)CC[C@H](c4ccc(C#N)cc4)S3(=O)=O)c(F)c2)CC1
[1]
  Efficacy: 62%
[2]
  EC50: 3900 nM

## CC(=O)N1CCN(c2ccc(CN3[C@@H](C)CC[C@H](c4ncccn4)S3(=O)=O)c(F)c2)CC1
[1]
  Efficacy: 76%
[2]
  EC50: 410 nM

## CC(=O)N1CCN(c2ccc(CN3[C@@H](C)CC[C@H](c4cccnc4)S3(=O)=O)c(F)c2)CC1
[1]
  Efficacy: 73%
[2]
  EC50: 820 nM

## CC(=O)N1CCN(c2ccc(CN3[C@@H](C)CC[C@H](c4ccncc4)S3(=O)=O)c(F)c2)CC1
[1]
  Efficacy: 89%
[2]
  EC50: 410 nM

## CC(=O)N1CCN(c2ccc(CN3[C@@H](C)CC[C@H](c4ccccc4C#N)S3(=O)=O)c(F)c2)CC1
[1]
  Efficacy: 76%
[2]
  EC50: 1900 nM

## CC(=O)N1CCN(c2ccc(CN3CCCC[C@H](c4ccccc4)S3(=O)=O)c(F)c2)CC1
PBMC [3]
  EC50: > 20000 nM
PBMC [4]
  Imax: 80%
[1]
  Efficacy: 99%
[5]
  EC50: 6800 nM
[6]
  EC50: 25 nM
[7]
  EC50: 6800 nM
[2]
  EC50: 6 nM
PBMC [8]
  EC50: 430 nM
PBMC [9]
  EC50: > 20000 nM

## CC(=O)N1CCN(c2ccc(CN3[C@@H](C)CC[C@H](c4cccc(C#N)c4)S3(=O)=O)c(F)c2)CC1
[1]
  Efficacy: 64%
[2]
  EC50: 1300 nM

## CC(=O)N1CCN(c2ccc(CN3[C@@H](C)CC[C@H](c4ccccc4Cl)S3(=O)=O)c(F)c2)CC1
[1]
  Efficacy: 91%
[2]
  EC50: 230 nM

## CC(=O)N1CCN(c2ccc(CN3[C@H](C)COC[C@H](c4ccccc4)S3(=O)=O)c(F)c2)CC1
[1]
  Efficacy: 98%
[2]
  EC50: 73 nM

## CC(=O)N1CCN(c2ccc(CN3[C@@H](C)COC[C@H](c4ccccc4)S3(=O)=O)c(F)c2)CC1
PBMC [3]
  EC50: > 20000 nM
PBMC [4]
  Imax: 80%
[1]
  Efficacy: 100%
[5]
  EC50: > 10000 nM
[6]
  EC50: 64 nM
[7]
  EC50: > 10000 nM
[2]
  EC50: 8 nM
PBMC [8]
  EC50: 750 nM
PBMC [9]
  EC50: > 20000 nM

## CC(=O)N1CCN(c2ccc(CN3C[C@@H](C)OC[C@H](c4ccccc4)S3(=O)=O)c(F)c2)CC1
[1]
  Efficacy: 100%
[2]
  EC50: 21 nM

## COc1ccc([C@H]2CC[C@H](C)N(Cc3ccc(N4CCN(C(C)=O)CC4)cc3F)S2(=O)=O)cc1
[1]
  Efficacy: 96%
[2]
  EC50: 28 nM

## CC(=O)N1CCN(c2ccc(CN3[C@@H](C)CC[C@H](c4ccsc4)S3(=O)=O)c(F)c2)CC1
[1]
  Efficacy: 98%
[2]
  EC50: 13 nM

## COc1ccccc1[C@H]1CC[C@H](C)N(Cc2ccc(N3CCN(C(C)=O)CC3)cc2F)S1(=O)=O
[1]
  Efficacy: 94%
[2]
  EC50: 94 nM

## CC(=O)N1CCN(c2ccc(CN3C[C@H](C)OC[C@H](c4ccccc4)S3(=O)=O)c(F)c2)CC1
PBMC [3]
  EC50: > 20000 nM
[10]
  hepatic extraction ratio: > 0.7
[11]
  Papp A→B: 16 ×10⁻⁶ cm/s
PBMC [4]
  Imax: 67%
[1]
  Efficacy: 100%
[12]
  fraction unbound: 0.07
[5]
  EC50: > 10000 nM
[13]
  hepatic extraction ratio: > 0.7
[14]
  Papp B→A: 15 ×10⁻⁶ cm/s
[6]
  EC50: 22 nM
[15]
  fraction unbound: 0.06
[16]
  solubility kinetic: 38 µM (≈ 18.1 µg/mL)
[7]
  EC50: > 10000 nM
[17]
  fraction unbound: 0.11
[2]
  EC50: 3 nM
PBMC [8]
  EC50: 450 nM
[18]
  efflux ratio: 1
PBMC [9]
  EC50: > 20000 nM

## CC(=O)N1CCN(c2ccc(CN3CCOC[C@H](c4ccccc4)S3(=O)=O)c(F)c2)CC1
PBMC [3]
  EC50: > 20000 nM
PBMC [4]
  Imax: 59%
[1]
  Efficacy: 99%
[2]
  EC50: 31 nM
PBMC [8]
  EC50: 1200 nM
PBMC [9]
  EC50: > 20000 nM

## CC(=O)N1CCN(c2ccc(CN3[C@@H](C)CC[C@H](c4cccs4)S3(=O)=O)c(F)c2)CC1
[1]
  Efficacy: 91%
[2]
  EC50: 2 nM

## COc1cccc([C@H]2CC[C@H](C)N(Cc3ccc(N4CCN(C(C)=O)CC4)cc3F)S2(=O)=O)c1
[1]
  Efficacy: 97%
[2]
  EC50: 58 nM

## CC(=O)N1CCN(c2ccc(CN3[C@@H](C)CC[C@H](c4ccccc4)S3(=O)=O)c(F)c2)CC1
PBMC [3]
  EC50: > 20000 nM
[11]
  Papp A→B: 24 ×10⁻⁶ cm/s
PBMC [4]
  Imax: 82%
[12]
  fraction unbound: 0.05
[5]
  EC50: 5400 nM
[14]
  Papp B→A: 32 ×10⁻⁶ cm/s
[6]
  EC50: 47 nM
[15]
  fraction unbound: 0.04
[16]
  solubility kinetic: 20 µM (≈ 9.19 µg/mL)
[7]
  EC50: 5400 nM
[17]
  fraction unbound: 0.05
PBMC [8]
  EC50: 450 nM
PBMC [9]
  EC50: > 20000 nM

## CC(=O)N1CCN(c2ccc(CN3[C@@H](C)CC[C@H](c4cccc(Cl)c4)S3(=O)=O)c(F)c2)CC1
[1]
  Efficacy: 99%
[2]
  EC50: 7 nM
